Experiment: xn = mol fraction of the nth substance listed
Settings: 97.6 kPa, Liquid; for viscosity: Capillary tube (Ostwald / Ubbelohde) method; for mass density: Vibrating tube method

CCCCCCCC[n+]1ccn(C)c1.[Cl-] [1-methyl-3-octylimidazolium chloride] + CN(C)C=O
Settings | mass density [kg/m3] | viscosity [mPa·s]
303.15 K, x1 = 0.119 | 965.57 | 2.56
303.15 K, x1 = 0.241 | 979.1 | 8.9
303.15 K, x1 = 0.321 | 985.99 | 18.99
303.15 K, x1 = 0.424 | 992 | 49.08
303.15 K, x1 = 0.557 | 996.35 | 160.48
303.15 K, x1 = 0.739 | 1002.01 | 766.79
303.15 K, x1 = 0.858 | 1004.31 | 1892.8
303.15 K, x1 = 1 | 1006.2 | 7339.7
308.15 K, x1 = 0.119 | 961.27 | 2.32
308.15 K, x1 = 0.241 | 975.4 | 7.69
308.15 K, x1 = 0.321 | 982.47 | 15.91
308.15 K, x1 = 0.424 | 988.63 | 39.48
308.15 K, x1 = 0.557 | 993.19 | 122.67
308.15 K, x1 = 0.739 | 998.95 | 536.62
308.15 K, x1 = 0.858 | 1001.36 | 1258
308.15 K, x1 = 1 | 1003.33 | 4272.9
313.15 K, x1 = 0.119 | 957.31 | 2.13
313.15 K, x1 = 0.241 | 971.7 | 6.75
313.15 K, x1 = 0.321 | 979.05 | 13.51
313.15 K, x1 = 0.424 | 985.26 | 32.2
313.15 K, x1 = 0.557 | 989.93 | 95.06
313.15 K, x1 = 0.739 | 995.95 | 381.17
313.15 K, x1 = 0.858 | 998.42 | 856.69
313.15 K, x1 = 1 | 1000.48 | 2766.9
318.15 K, x1 = 0.119 | 953.45 | 1.95
318.15 K, x1 = 0.241 | 967.99 | 5.96
318.15 K, x1 = 0.321 | 975.72 | 11.56
318.15 K, x1 = 0.424 | 981.9 | 26.5
318.15 K, x1 = 0.557 | 986.82 | 74.18
318.15 K, x1 = 0.739 | 992.97 | 277.21
318.15 K, x1 = 0.858 | 995.47 | 596.05
318.15 K, x1 = 1 | 997.64 | 1788.6
323.15 K, x1 = 0.119 | 949.36 | 1.81
323.15 K, x1 = 0.241 | 964.31 | 5.29
323.15 K, x1 = 0.321 | 972.37 | 10
323.15 K, x1 = 0.424 | 978.56 | 22.11
323.15 K, x1 = 0.557 | 983.92 | 59.06
323.15 K, x1 = 0.739 | 990 | 206.44
323.15 K, x1 = 0.858 | 992.57 | 426.48
323.15 K, x1 = 1 | 994.82 | 1198.7
328.15 K, x1 = 0.119 | – | 1.67
328.15 K, x1 = 0.241 | – | 4.75
328.15 K, x1 = 0.321 | – | 8.72
328.15 K, x1 = 0.424 | – | 18.67
328.15 K, x1 = 0.557 | – | 47.65
328.15 K, x1 = 0.739 | – | 156.59
328.15 K, x1 = 0.858 | – | 312.38
328.15 K, x1 = 1 | – | 828.3

— the NIST ThermoML archive (doi:10.1021/acs.jced.7b00002)
